Measured values taken from PMC5310922, “A high-throughput phenotypic screen identifies clofazimine as a potential treatment for cryptosporidiosis” (PLoS Neglected Tropical Diseases, 2017).
pEC50: −log10 of the molar value. Read-outs that look alike come from different tables or passages of the source. One block for each compound: values may come before it.

Key:
[1] = system: Cryptosporidium parvum; assay: C. parvum proliferation in HCT-8 cells, 48 h high-content imaging assay; format: cell-based, Cryptosporidium parvum (Iowa strain); conditions: for pEC50 / EC50: Cryptosporidium parvum, 48 h; for pEC50: HCT-8 cells, read-out: EC50 against C. parvum; for EC50: in HCT-8 cells, value (SD; n), read-out: C. parvum 48H Assay EC50 [µM] (SD; n); for EC99 against C. parvum: concentration used in washout assay
[2] = Pharmacokinetic study in mice (plasma, feces, urine); conditions: 20 mg/kg oral; for fecal excretion (unchanged), first 24 h: mean ± SEM; for peak plasma concentration: mean ± SEM n=3
[3] = system: C. parvum; assay: Washout assay: 3-h treatments over the asexual life cycle of C. parvum; conditions: 3-h treatment then washout; even at 3×EC99
Description: We examined short, three-hour compound treatments of in vitro cultures, followed by compound washout, that covered the complete asexual life cycle, believed to be 13–15 h post invasion [36]. […] The treatment interval lasted 3 h before washout with fresh medium; infected cells were allowed to grow until 48 h post infection before fixation. […] As CFZ is very lipophilic, we sought to determine whether intracellular accumulation was affecting the strong inhibition across each time point.
Infected cells were treated in six 3-h increments over the course of 15 h (the presumed in vitro asexual lifecycle of C. parvum). HCT-8 cells were seeded (25 μL/well) into clear-bottomed 384-well plates (Greiner) at a density of 6.0×10^5 cells/mL (15,000 cells/well) in assay medium, and allowed to grow 24 h at 37°C with 5% CO2 in a humidified tissue culture incubator, covered with a custom metal lid (The Genomics Institute of the Novartis Research Foundation) to reduce evaporation. After 24 h, and 2 h before infecting with C. parvum oocysts (time -2 hpi), the treatment time course was initiated. […] DMSO was used as a negative control. Cell medium was removed from designated wells and replaced with medium containing either compound or DMSO. […] Plates were then spun at 150×g for 3 min, and kept at 37°C with 5% CO2 in a humidified tissue culture incubator during drug treatment intervals. At the end of each 3 h time point, infected cells were carefully washed three times with fresh, pre-warmed assay medium, and the next set of wells for the subsequent time point were treated. The final time point extended to 18 h, to cover re-invasion of merozoites into new HCT-8 cells. After the final compound treatment was washed off, infected cells were allowed to grow until 48 h post infection.

[4] = HepG2 72 h cytotoxicity (CellTiter-Glo); format: cell-based, human; conditions: human
Description: (§1) Two mammalian cell lines were used for counter-screening for general cytotoxicity of hit compounds: human embryonic kidney cells (HEK293T; ATCC CRL-3216) and human hepatocellular carcinoma cells (HepG2; ATCC HB-8065). […] Compounds were pre-spotted into tissue culture-treated white solid-bottomed 1536-well plates (Greiner) in a 1:3 dose-response dilution (top concentration 20 μM). HEK293T and HepG2 cells were diluted to 75×10^3 cells/mL and 150×10^3 cells/mL, respectively, and 5 μL/well were dispensed into assay plates with a MultiFlo FX Multi-Mode Dispenser (Biotek). […] At the completion of the assay, CellTiter-Glo (Promega) was prepared at 1:2 (reagent:water) of the manufacturer’s instructions, and 2 μL were dispensed into each well. After a 5 min incubation at room temperature, luminescence readings were measured with an EnVision Multilabel Plate Reader (Perkin Elmer). […] were uploaded into Genedata Screener (v13.0-Standard), and data normalized to DMSO- and puromycin-treated wells. A four-parameter non-linear regression curve fit was applied to dose-response data using Genedata to determine the half maximal cytotoxic concentration (CC50) of each compound.

[5] = system: C. parvum; assay: Mouse model of acute cryptosporidiosis, fecal oocyst shedding by flow cytometry; format: in vivo, C57BL/6 IFNγ-/- mice; conditions: for oocyst shedding, % of mock-dosed mice: 10 mg/kg oral on days 4, 5, 6 p.i., 10^4 oocysts, day 7 (within 24 h of end of treatment)
Description: Four week old female C57BL/6 IFNγ^-/- mice were purchased from the Jackson Laboratory and acclimated for four to ten days in specific pathogen-free conditions in the Health Sciences Biomedical Research Facility at the University of California, San Diego. Mice were provided water and chow (Teklad 2920X) ad libitum. […] Treatment regimens included 10 mg/kg, 100 mg/kg, and 0 mg/kg (vehicle only; n = 4 per group). Certain assays also involved gavage of characterized anticryptosporidial BKI-1294 (a kind gift from W. […] Oocysts were extracted via a modified discontinuous sucrose gradient technique. Briefly, […] solution was freshly prepared by dissolving 156.25 g sucrose and 2.5 mL phenol in 100 mL water. Fecal pellets were removed from storage then homogenized by vortexing and pipetting. […] Oocysts were floated from feces by centrifugation at 1,000×g for 20 min and collected with a pipet tip from the 1.064/1.103 specific gravity interface. Oocysts were rinsed once in cold PBS, pelleted by centrifugation at 15,000×g for 10 min, and resuspended in PBS. 50 μL aliquots were incubated for 30 min at room temperature with 0.25 μg fluorescein isothiocyanate-conjugated mouse anti-Cryptosporidium antibody (OW50-FITC, BioRad 2402-3007), then diluted to 200 μL with PBS. Samples were analyzed using a Guava EasyCyte flow cytometer and CytoSoft Data Acquisition and Analysis software (v5.3; Guava Technologies, Inc.), using a 100 s sampling interval, 0.59 μL/s flow rate, and logical gating of forward and side light scatter and OW50-FITC fluorescence signals. Each experimental run included positive and negative controls to calibrate region settings discriminating the oocyst-FITC population from background signals. Oocyst counts/mL sample values were exported to Excel (Microsoft Corp.) for normalization to counts/mg feces. Final graphing and statistical analyses of data were done using GraphPad Prism software (v6, GraphPad Software, Inc.). Two-way ANOVA with Dunnett's correction (Fig 4A) and unpaired multiple t-tests with False Discovery Rate approach (Fig 4B) were performed on % Vehicle data to determine significance between vehicle-treated and compound-treated mice.

[6] = system: Cryptosporidium; design: method as in PMID 23878324; conditions: once per day for ten consecutive days at 100 mg/kg; cited from earlier work
[7] = HEK293T 72 h cytotoxicity (CellTiter-Glo); format: cell-based, human; conditions: human
Description: as §1

[8] = system: C. parvum; assay: Host cell 3-h pre-treatment, with or without wash, then C. parvum infection; format: cell-based, Cryptosporidium parvum; conditions: for pEC50: Cryptosporidium parvum, host cells pretreated 3 h, C. parvum, 48 hpi
Description: A set of parallel wells were also treated and not washed prior to infection. 48 hpi, infected cells were imaged as described above, and EC50s for each compound pre- and post-wash were determined.

[9] = design: method as in PMID 2656045; conditions: cited from earlier work
[10] = 7% Tween 80, 3% ethanol, 90% water

pEC50 [1]: 6.40 | EC50 [1]: 0.388 µM | dosage excreted in the urine, first 48 h [2]: 1.6% | plasma concentration dropped to, within first 24 h post dosing [2]: 6.7 ± 0.3 ng/mL | fecal excretion (unchanged), first 24 h [2, 10]: 8.9% ± 0.5% | peak plasma concentration [2, 10]: 1282 ± 154 ng/mL
SMILES: CCOc1ccc2cc(-c3nn(CC4CCN(C)CC4)c4ncnc(N)c34)ccc2c1 [BKI-1294]
EC99 against C. parvum [1]: 2 µM | inhibition of parasite growth at all time points other than 10–13 h post infection [3]: < 60% | CC50 at 72 h [4]: 11.1 µM | oocyst shedding, % of mock-dosed mice [5]: 18.1% ± 2.2% | efficacy in mouse model of chronic cryptosporidiosis [6]: demonstrated efficacy | CC50 at 72 h [7]: 12.4 µM | pEC50 ([8]; read-out: Post-wash EC50): 6.02 | pEC50 ([8]; read-out: Pre-wash EC50): < 4.90

pEC50 [1]: 7.82 | EC50 [1]: 0.0149 µM | dosage excreted in the urine, first 48 h [2]: < 0.15% | time plasma concentrations remained stable after the initial maximal concentration [2]: at least 20 hours | fecal excretion (unchanged), first 24 h ([2]; MC-Tween): 25.7% ± 13.3% | peak plasma concentration ([2]; MC-Tween, within first 24 h): 288 ± 2 ng/mL | fecal excretion (unchanged), first 24 h ([2]; corn oil): 14.8% ± 3.1% | peak plasma concentration ([2]; corn oil, within first 24 h): 445 ± 61 ng/mL | mean fecal excretion, next 48 h ([2]; either formulation): < 2%
SMILES: CC(C)/N=c1\cc2n(-c3ccc(Cl)cc3)c3ccccc3nc-2cc1Nc1ccc(Cl)cc1 [Clofazimine]
fold more potent against C. parvum than C. hominis ([1]; C. parvum vs C. hominis EC50): ~ 20 fold | EC99 against C. parvum [1]: 0.03 µM | drug half-life [9]: ~ 70 days | CC50 at 72 h ([4]; HepG2 cells, 72 h, value (SD; n), read-out: HepG2 72H Cytotoxicity CC50 [µM] (SD; n)): > 20 µM | oocyst shedding, % of control group ([5]; 10 mg/kg oral daily from day 4 p.i., within two days of treatment onset): 2.5% ± 1.7% | oocyst shedding, % of mock-dosed mice [5]: below 1% | oocyst shedding ([5]; once daily for three consecutive days or a single high dose): reduction of oocyst shedding below the limit detectable by flow cytometry | oocyst shedding, % of mock-treated mice ([5]; single 100 mg/kg oral dose on day 4, 1×10^6 oocysts, second day after treatment): 1.5% ± 0.4% | CC50 at 72 h ([7]; HEK293T cells, 72 h, value (SD; n), read-out: HEK293T 72H Cytotoxicity CC50 [µM] (SD; n)): > 20 µM | pEC50 ([8]; read-out: Post-wash EC50): 8.15 | pEC50 ([8]; read-out: Pre-wash EC50): 7.64 | inhibition of C. parvum proliferation after compound removal by repeated washes ([8]; host cell pre-treatment, dose-response): near equipotent inhibition
